# Literature values in paper PMC9329312, “Decoding kinase-adverse event associations for small molecule kinase inhibitors” (Nature Communications, 2022).
# Read-outs that look alike come from different tables or passages of the source.
# Settings: ref FAERS
smiles,measurement,setting,value
CCOc1cc2ncc(C#N)c(Nc3ccc(OCc4ccccn4)c(Cl)c3)c2cc1NC(=O)/C=C/CN(C)C [neratinib],"Pyrexia, % of Cases",,1.4%
same,"Quality of life decreased, % of Cases",,0.075%
same,"Radiation injury, % of Cases",,0.075%
same,"Rash erythematous, % of Cases",,0.3%
same,"Rash macular, % of Cases",,0.075%
same,"Rash papular, % of Cases",,0.075%
same,"Rash pruritic, % of Cases",,0.3%
same,"Rash pustular, % of Cases",,0.225%
same,"Rash vesicular, % of Cases",,0.075%
same,"Rash, % of Cases",,5.0%
same,"Raynaud's phenomenon, % of Cases",,0.075%
same,"Recall phenomenon, % of Cases",,0.075%
same,"Rectal haemorrhage, % of Cases",,0.5%
same,"Recurrent cancer, % of Cases",,0.075%
same,"Red blood cell count decreased, % of Cases",,0.225%
same,"Red blood cell sedimentation rate increased, % of Cases",,0.075%
same,"Reflux laryngitis, % of Cases",,0.15%
same,"Refraction disorder, % of Cases",,0.075%
same,"Renal disorder, % of Cases",,0.45%
same,"Renal failure, % of Cases",,0.6%
same,"Renal function test abnormal, % of Cases",,0.15%
same,"Renal impairment, % of Cases",,0.8%
same,"Renal mass, % of Cases",,0.075%
same,"Respiratory arrest, % of Cases",,0.075%
same,"Respiratory failure, % of Cases",,0.15%
same,"Restless legs syndrome, % of Cases",,0.075%
same,"Retching, % of Cases",,0.3%
same,"Retinal artery occlusion, % of Cases",,0.075%
same,"Retinal tear, % of Cases",,0.075%
same,"Rhinorrhoea, % of Cases",,0.75%
same,"Road traffic accident, % of Cases",,0.075%
same,"Rubber sensitivity, % of Cases",,0.075%
same,"Saliva altered, % of Cases",,0.075%
same,"Salivary gland cancer, % of Cases",,0.15%
same,"Salpingectomy, % of Cases",,0.075%
same,"Salpingo-oophorectomy bilateral, % of Cases",,0.075%
same,"Scab, % of Cases",,0.075%
same,"Seasonal allergy, % of Cases",,0.075%
same,"Seizure, % of Cases",,0.225%
same,"Sensation of foreign body, % of Cases",,0.15%
same,"Seroma, % of Cases",,0.075%
same,"Sinus disorder, % of Cases",,0.075%
same,"Sinus headache, % of Cases",,0.075%
same,"Sinus tachycardia, % of Cases",,0.075%
same,"Sinusitis, % of Cases",,0.15%
same,"Sjogren's syndrome, % of Cases",,0.075%
same,"Skin atrophy, % of Cases",,0.075%
same,"Skin burning sensation, % of Cases",,0.075%
same,"Skin discolouration, % of Cases",,0.225%
same,"Skin disorder, % of Cases",,0.075%
same,"Skin erosion, % of Cases",,0.075%
same,"Skin exfoliation, % of Cases",,0.8%
same,"Skin fissures, % of Cases",,0.9%
same,"Skin haemorrhage, % of Cases",,0.075%
same,"Skin irritation, % of Cases",,0.075%
same,"Skin odour abnormal, % of Cases",,0.075%
same,"Skin reaction, % of Cases",,0.075%
same,"Skin ulcer, % of Cases",,0.075%
same,"Sleep disorder, % of Cases",,0.15%
same,"Slow speech, % of Cases",,0.075%
same,"Sluggishness, % of Cases",,0.075%
same,"Small intestine adenocarcinoma, % of Cases",,0.075%
same,"Sneezing, % of Cases",,0.225%
same,"Snoring, % of Cases",,0.075%
same,"Somnolence, % of Cases",,1.5%
same,"Spinal pain, % of Cases",,0.075%
same,"Sputum retention, % of Cases",,0.075%
same,"Staphylococcal infection, % of Cases",,0.075%
same,"Stomatitis, % of Cases",,2.0%
same,"Stress fracture, % of Cases",,0.075%
same,"Stress, % of Cases",,0.3%
same,"Subclavian vein thrombosis, % of Cases",,0.075%
same,"Sunburn, % of Cases",,0.075%
same,"Surgery, % of Cases",,0.6%
same,"Swelling face, % of Cases",,0.225%
same,"Swelling, % of Cases",,0.15%
same,"Swollen tongue, % of Cases",,0.15%
same,"Syncope, % of Cases",,0.15%
same,"Tachycardia, % of Cases",,0.225%
same,"Taste disorder, % of Cases",,1.2%
same,"Temporomandibular joint syndrome, % of Cases",,0.075%
same,"Tenderness, % of Cases",,0.075%
same,"Tension headache, % of Cases",,0.075%
same,"Therapeutic product ineffective for unapproved indication, % of Cases",,0.075%
same,"Therapy cessation, % of Cases",,0.375%
same,"Therapy change, % of Cases",,0.225%
same,"Therapy interrupted, % of Cases",,0.15%
same,"Thirst, % of Cases",,0.375%
same,"Throat irritation, % of Cases",,0.075%
same,"Throat tightness, % of Cases",,0.075%
same,"Thrombocytopenia, % of Cases",,0.075%
same,"Thrombosis, % of Cases",,0.225%
same,"Thyroid cancer, % of Cases",,0.075%
same,"Thyroid mass, % of Cases",,0.075%
same,"Tongue discolouration, % of Cases",,0.075%
same,"Tongue discomfort, % of Cases",,0.075%
same,"Tongue erythema, % of Cases",,0.15%
same,"Tooth extraction, % of Cases",,0.075%
same,"Tooth fracture, % of Cases",,0.075%
same,"Tooth injury, % of Cases",,0.075%
same,"Toothache, % of Cases",,0.15%
same,"Toxicity to various agents, % of Cases",,0.075%
same,"Tracheal disorder, % of Cases",,0.075%
same,"Transaminases increased, % of Cases",,0.075%
same,"Transient ischaemic attack, % of Cases",,0.075%
same,"Transitional cell carcinoma metastatic, % of Cases",,0.075%
same,"Treatment noncompliance, % of Cases",,0.075%
same,"Tremor, % of Cases",,0.375%
same,"Trichorrhexis, % of Cases",,0.075%
same,"Tumour flare, % of Cases",,0.075%
same,"Tumour marker increased, % of Cases",,0.075%
same,"Tumour pain, % of Cases",,0.075%
same,"Tumour ulceration, % of Cases",,0.075%
same,"Underdose, % of Cases",,2.6%
same,"Upper limb fracture, % of Cases",,0.075%
same,"Upper respiratory tract infection, % of Cases",,0.375%
same,"Upper-airway cough syndrome, % of Cases",,0.075%
same,"Urinary retention, % of Cases",,0.075%
same,"Urinary tract discomfort, % of Cases",,0.075%
same,"Urinary tract infection, % of Cases",,2.1%
same,"Urine analysis abnormal, % of Cases",,0.075%
same,"Urine odour abnormal, % of Cases",,0.075%
same,"Urticaria, % of Cases",,0.375%
same,"Uterine cancer, % of Cases",,0.075%
same,"Uterine leiomyoma, % of Cases",,0.075%
same,"Vaginal discharge, % of Cases",,0.075%
same,"Vaginal haemorrhage, % of Cases",,0.225%
same,"Venous pressure jugular increased, % of Cases",,0.075%
same,"Vertigo positional, % of Cases",,0.075%
same,"Vertigo, % of Cases",,0.075%
same,"Viral infection, % of Cases",,0.15%
same,"Vision blurred, % of Cases",,0.375%
same,"Visual impairment, % of Cases",,0.225%
same,"Vitamin D decreased, % of Cases",,0.075%
same,"Vitiligo, % of Cases",,0.075%
same,"Vitreous floaters, % of Cases",,0.075%
same,"Volume blood decreased, % of Cases",,0.075%
same,"Vomiting projectile, % of Cases",,0.075%
same,"Vomiting, % of Cases",,13.8%
same,"Vulvovaginal burning sensation, % of Cases",,0.075%
same,"Vulvovaginal dryness, % of Cases",,0.075%
same,"Vulvovaginal pain, % of Cases",,0.075%
same,"Vulvovaginal pruritus, % of Cases",,0.15%
same,"Weight decreased, % of Cases",,4.9%
same,"Weight fluctuation, % of Cases",,0.075%
same,"Weight increased, % of Cases",,0.3%
same,"White blood cell count decreased, % of Cases",,0.7%
same,"White blood cell count increased, % of Cases",,0.15%
same,"Wound haemorrhage, % of Cases",,0.075%
same,"Wound, % of Cases",,0.075%
same,"Wrist fracture, % of Cases",,0.075%
same,"Wrong technique in product usage process, % of Cases",,0.075%
same,"Xeroderma, % of Cases",,0.075%
same,"Abdominal discomfort, % of Cases",listed as Neratinib,4.80%
same,"Abdominal pain upper, % of Cases",listed as Neratinib,6.00%
same,"Abdominal pain, % of Cases",listed as Neratinib,6.20%
same,"Constipation, % of Cases",listed as Neratinib,15.50%
same,"Death, % of Cases",listed as Neratinib,9.60%
same,"Decreased appetite, % of Cases",listed as Neratinib,11.90%
same,"Dehydration, % of Cases",listed as Neratinib,6.60%
same,"Diarrhoea, % of Cases",listed as Neratinib,61.80%
same,"Dizziness, % of Cases",listed as Neratinib,4.60%
same,"Dyspepsia, % of Cases",listed as Neratinib,4.40%
same,"Fatigue, % of Cases",listed as Neratinib,25.20%
same,"Headache, % of Cases",listed as Neratinib,5.40%
same,"Hospitalisation, % of Cases",listed as Neratinib,5.30%
same,"Muscle spasms, % of Cases",listed as Neratinib,4.20%
same,"Nausea, % of Cases",listed as Neratinib,29.70%
same,"Off label use, % of Cases",listed as Neratinib,11.60%
same,"Product dose omission issue, % of Cases",listed as Neratinib,7.80%
same,"Rash, % of Cases",listed as Neratinib,5.00%
same,"Vomiting, % of Cases",listed as Neratinib,13.80%
same,"Weight decreased, % of Cases",listed as Neratinib,4.90%
